Measurements published in the NIST ThermoML archive (doi:10.1021/je500381c).

Test: xn = mol fraction of the nth substance listed
Conditions: for mass density / viscosity: 100 kPa, Liquid; for mass density: Vibrating tube method; for surface tension liquid-gas: Drop volume

CCC12CC3CC(CC(C3)C1)C2 [1-ethyladamantane] + CCCCCCCO
Conditions	mass density, 293.15 K [kg/m3]	mass density, 298.15 K [kg/m3]	mass density, 303.15 K [kg/m3]	mass density, 308.15 K [kg/m3]	mass density, 313.15 K [kg/m3]	surface tension liquid-gas, 298.15 K [mN/m]	viscosity, 293.15 K [mPa·s]	viscosity, 298.15 K [mPa·s]	viscosity, 303.15 K [mPa·s]	viscosity, 308.15 K [mPa·s]
x2 = 0	937.11	933.58	929.99	926.4	922.81	29.87	6.371	5.565	4.903	4.348
x2 = 0.0999	927.59	924.02	920.37	916.7	913.02	29.66	5.91	5.136	4.506	3.965
x2 = 0.1999	917.88	914.26	910.61	906.92	903.22	29.21	5.707	4.958	4.337	3.814
x2 = 0.2988	907.92	904.28	900.6	896.92	893.21	28.87	5.62	4.86	4.238	3.722
x2 = 0.3991	897.36	893.7	890.03	886.35	882.64	28.72	5.584	4.836	4.215	3.692
x2 = 0.4998	886.28	882.65	878.99	875.31	–	28.42	5.647	4.859	4.215	3.681
x2 = 0.5995	874.78	871.16	867.51	863.84	–	28.1	5.843	4.989	4.306	3.742
x2 = 0.7	862.6	859.01	855.39	851.75	–	27.75	6.077	5.156	4.424	3.824
x2 = 0.8002	849.85	846.29	842.7	839.08	–	27.23	6.41	5.422	4.63	3.985
x2 = 0.9	836.45	832.93	829.37	825.79	–	26.74	6.719	5.683	4.841	4.154
